Values of other authors as cited in US11027026B2, “Polymer, and contrast agent for photoacoustic imaging, including the polymer” (CANON KABUSHIKI KAISHA, priority 2014, dated 2021).

Settings: in vivo

For `CC1(C)C(/C=C/C=C/C=C/C=C2/N(CCCCS(=O)(=O)[O-])c3ccc4ccccc4c3C2(C)C)=[N+](CCCCS(=O)(=O)[O-])c2ccc3ccccc3c21.[Na+]` [ICG, indocyanine green], the Half-life in blood is listed as “about several minutes”.
